Data published in patent EP4342885A1, “N-(3-(AMINOMETHYL)-PHENYL)-5-(4-PHENYL)-5-(TRIFLUOROMETHYL)-4,5-DIHYDROISOXAZOL-3-AMINE DERIVATIVES AND SIMILAR COMPOUNDS AS PESTICIDES” (priority 2022, dated 2024).

Legend:
Type in all cases: in vivo
[1] = system: Anthonomus grandis; assay: Boll weevil (Anthonomus grandis) control, 96-well microtiter plate insect diet with eggs; conditions: 120 h, read-out: mortality in comparison with untreated controls
Method: For evaluating control of boll weevil, the test unit consisted of 96-well-microtiter plates containing an insect diet and 5-10 A. grandis eggs.
The compounds were formulated using a solution containing 75% v/v water and 25% v/v DMSO. Different concentrations of formulated compounds were sprayed onto the insect diet at 5µl, using a custom-built micro atomizer, at two replications.
After application, microtiter plates were incubated at about 25 ± 1°C and about 75 ± 5 % relative humidity for 5 days. Egg and larval mortality were then visually assessed.

[2] = system: Myzus persicae; assay: Green peach aphid (Myzus persicae), mixed life stages, systemic test via artificial diet under membrane; conditions: 72 h, read-out: mortality in comparison with untreated controls
Excerpt: For evaluating control of Green Peach Aphid through systemic means the test unit consisted of 96-well-microtiter plates containing liquid artificial diet under an artificial membrane. The compounds were formulated using a solution containing 75% v/v water and 25% v/v DMSO. Different concentrations of formulated compounds were pipetted into the aphid diet, using a custom-built pipette, at two replications. After application, 5 - 8 adult aphids were placed on the artificial membrane inside the microtiter plate wells. The aphids were then allowed to suck on the treated aphid diet and incubated at about 23 ± 1°C and about 50 ± 5 % relative humidity for 3 days. Aphid mortality and fecundity was then visually assessed.

[3] = system: Heliothis virescens; assay: Tobacco budworm (Heliothis virescens) control, 96-well microtiter plate insect diet with eggs; conditions: 120 h, read-out: mortality in comparison with untreated controls
Method: For evaluating control of Tobacco Budworm, the test unit consisted of 96-well-microtiter plates containing an insect diet and 15-25 H. virescens eggs. The compounds were formulated using a solution containing 75% v/v water and 25% v/v DMSO. Different concentrations of formulated compounds were sprayed onto the insect diet at 10µl, using a custom-built micro atomizer, at two replications. After application, microtiter plates were incubated at about 28 ± 1°C and about 80 ± 5 % relative humidity for 5 days. Egg and larval mortality was then visually assessed.

[4] = system: Plutella xylostella; assay: Diamond back moth (Plutella xylostella) control, 96-well microtiter plate insect diet with eggs; conditions: 120 h, read-out: mortality in comparison with untreated controls
Method: For evaluating control of […] (Plutella xylostella) the test unit consisted of 96-well-microtiter plates containing an insect diet and 15-25 P. xylostella eggs.
The compounds or mixtures were formulated using a solution containing 75% water and 25% DMSO. Different concentrations of formulated compounds or mixtures were sprayed onto the insect diet at 5µl, using a custom-built micro atomizer, at two replications.
After application, microtiter plates were incubated at 28 ± 1°C, 80 ± 5 % RH for 5 days. Egg and larval mortality was then visually assessed.

[5] = system: Aedes aegypti; assay: whole plant or invertebrate; conditions: 48 h, larval mortality, 2 days, read-out: mortality in comparison with untreated controls
Method: For evaluating control of Yellow Fever Mosquito, the test unit consisted of 96-well-microtiter plates containing 200µl of tap water per well and 5-15 freshly hatched A. aegypti larvae. The active compounds were formulated using a solution containing 75% (v/v) water and 25% (v/v) DMSO. Different concentrations of formulated compounds or mixtures were sprayed onto the insect diet at 2.5µl, using a custom-built micro atomizer, at two replications.
After application, microtiter plates were incubated at 28 ± 1°C, 80 ± 5 % RH for 2 days. Larval mortality was then visually assessed.

Measured: mortality at 800 ppm

CCC(=O)NCc1cc(NC2=NOC(c3cc(Cl)cc(Cl)c3)(C(F)(F)F)C2)ccc1F (stereo not drawn) [I-2]
not listed: [5]
≥ 75%: all other assays above

COCCC(=O)NCc1cc(NC2=NOC(c3cc(Cl)cc(Cl)c3)(C(F)(F)F)C2)ccc1F (stereo not drawn) [I-3]
not listed: [4]
≥ 75%: all other assays above

CS(=O)(=O)CC(=O)NCc1cc(NC2=NOC(c3cc(Cl)cc(Cl)c3)(C(F)(F)F)C2)ccc1F (stereo not drawn) [I-4]
not listed: [4]
≥ 75%: all other assays above

O=C(CC1CC1)NCc1cc(NC2=NOC(c3cc(Cl)cc(Cl)c3)(C(F)(F)F)C2)ccc1F (stereo not drawn) [I-6]
not listed: [4]
≥ 75%: all other assays above

O=C(NCc1cc(NC2=NOC(c3cc(Cl)cc(Cl)c3)(C(F)(F)F)C2)ccc1F)c1ncon1 (stereo not drawn) [I-7]
≥ 75%: [1]

COCC(=O)NCc1cc(NC2=NOC(c3cc(Cl)cc(Cl)c3)(C(F)(F)F)C2)ccc1F (stereo not drawn) [I-9]
≥ 75%: [1] | [2]

COC(=O)N1CCCC1C(=O)NCc1cc(NC2=NOC(c3cc(Cl)cc(Cl)c3)(C(F)(F)F)C2)ccc1F (stereo not drawn) [I-10]
≥ 75%: [1]

O=C(NCc1cc(NC2=NOC(c3cc(Cl)cc(Cl)c3)(C(F)(F)F)C2)ccc1F)c1ccccn1 (stereo not drawn) [I-11]
≥ 75%: [1] | [4]

CON=CC(=O)NCc1cc(NC2=NOC(c3cc(Cl)cc(Cl)c3)(C(F)(F)F)C2)ccc1F (stereo not drawn) [I-12]
not listed: [5]
≥ 75%: all other assays above

CCS(=O)(=O)NCc1cc(NC2=NOC(c3cc(Cl)cc(Cl)c3)(C(F)(F)F)C2)ccc1F (stereo not drawn) [I-13]
≥ 75%: all assays above

O=C(NCc1cc(NC2=NOC(c3cc(Cl)c(F)c(Cl)c3)(C(F)(F)F)C2)ccc1Cl)C1CC1 (stereo not drawn) [I-14]
≥ 75%: all assays above

CCN(C1=NOC(c2cc(Cl)c(F)c(Cl)c2)(C(F)(F)F)C1)c1ccc(F)c(CNC(=O)C2CC2)c1 (stereo not drawn) [I-15]
≥ 75%: all assays above

O=C(NCc1cc(NC2=NOC(c3cc(Cl)c(F)c(Cl)c3)(C(F)(F)F)C2)ccc1F)C1CC1 (stereo not drawn) [I-16]
≥ 75%: all assays above

CN(Cc1cc(NC2=NOC(c3cc(Cl)c(F)c(Cl)c3)(C(F)(F)F)C2)ccc1F)C(=O)C1CC1 (stereo not drawn) [I-17]
not listed: [2]
≥ 75%: all other assays above

O=C(NCc1cc(NC2=NOC(c3cc(Cl)c(F)c(Cl)c3)(C(F)(F)F)C2)ccc1OC(F)(F)F)C1CC1 (stereo not drawn) [I-18]
≥ 75%: all assays above

Cc1ccc(NC2=NOC(c3cc(Cl)c(F)c(Cl)c3)(C(F)(F)F)C2)cc1CNC(=O)C1CC1 (stereo not drawn) [I-20]
≥ 75%: all assays above

O=C(NCc1cc(NC2=NOC(c3ccc(F)c(Cl)c3)(C(F)(F)F)C2)ccc1Cl)C1CC1 (stereo not drawn) [I-21]
≥ 75%: all assays above

O=C(NCc1cc(OC2=NOC(c3cc(Cl)c(F)c(Cl)c3)(C(F)(F)F)C2)ccc1F)C1CC1 (stereo not drawn) [I-22]
≥ 75%: all assays above

O=C(NCc1cc(NC2=NOC(c3ccc(F)c(Cl)c3)(C(F)(F)F)C2)ccc1Cl)C1CCC1 (stereo not drawn) [I-23]
≥ 75%: all assays above

CC(C)C(=O)NCc1cc(NC2=NOC(c3ccc(F)c(Cl)c3)(C(F)(F)F)C2)ccc1Cl (stereo not drawn) [I-25]
≥ 75%: all assays above

O=C(CNC(=O)C1CC1)NCc1cc(NC2=NOC(c3ccc(F)c(Cl)c3)(C(F)(F)F)C2)ccc1Cl (stereo not drawn) [I-26]
not listed: [3]
≥ 75%: all other assays above

O=C(Cc1ccccc1)NCc1cc(NC2=NOC(c3ccc(F)c(Cl)c3)(C(F)(F)F)C2)ccc1Cl (stereo not drawn) [I-27]
≥ 75%: [5]

CC(C)CC(=O)NCc1cc(NC2=NOC(c3ccc(F)c(Cl)c3)(C(F)(F)F)C2)ccc1Cl (stereo not drawn) [I-28]
≥ 75%: all assays above

O=C(NCc1cc(NC2=NOC(c3ccc(F)c(Cl)c3)(C(F)(F)F)C2)ccc1Cl)C1CC=CC1 (stereo not drawn) [I-29]
not listed: [3]
≥ 75%: all other assays above

O=C(CN1CCCC1=O)NCc1cc(NC2=NOC(c3ccc(F)c(Cl)c3)(C(F)(F)F)C2)ccc1Cl (stereo not drawn) [I-31]
≥ 75%: [2] | [5]

N#CC1(C(=O)NCc2cc(NC3=NOC(c4ccc(F)c(Cl)c4)(C(F)(F)F)C3)ccc2Cl)CC1 (stereo not drawn) [I-32]
≥ 75%: all assays above

O=C(CC1OCCO1)NCc1cc(NC2=NOC(c3ccc(F)c(Cl)c3)(C(F)(F)F)C2)ccc1Cl (stereo not drawn) [I-33]
≥ 75%: [1] | [5] | [4]

N#Cc1ccc(C(=O)NCc2cc(NC3=NOC(c4ccc(F)c(Cl)c4)(C(F)(F)F)C3)ccc2Cl)s1 (stereo not drawn) [I-34]
≥ 75%: [1] | [5] | [4]

Cn1ncc(C#N)c1C(=O)NCc1cc(NC2=NOC(c3ccc(F)c(Cl)c3)(C(F)(F)F)C2)ccc1Cl (stereo not drawn) [I-37]
≥ 75%: [5] | [4]

O=C(Cn1cccn1)NCc1cc(NC2=NOC(c3ccc(F)c(Cl)c3)(C(F)(F)F)C2)ccc1Cl (stereo not drawn) [I-38]
≥ 75%: [1] | [5] | [4]

O=C(Cn1cncn1)NCc1cc(NC2=NOC(c3ccc(F)c(Cl)c3)(C(F)(F)F)C2)ccc1Cl (stereo not drawn) [I-40]
not listed: [3]
≥ 75%: all other assays above

O=C(Cc1ccsc1)NCc1cc(NC2=NOC(c3ccc(F)c(Cl)c3)(C(F)(F)F)C2)ccc1Cl (stereo not drawn) [I-44]
not listed: [3]
≥ 75%: all other assays above

CS(=O)(=O)N1CC(C(=O)NCc2cc(NC3=NOC(c4ccc(F)c(Cl)c4)(C(F)(F)F)C3)ccc2Cl)C1 (stereo not drawn) [I-46]
not listed: [3]
≥ 75%: all other assays above

CS(=O)(=O)NCC(=O)NCc1cc(NC2=NOC(c3ccc(F)c(Cl)c3)(C(F)(F)F)C2)ccc1Cl (stereo not drawn) [I-47]
not listed: [3]
≥ 75%: all other assays above

O=C(CC1CCS(=O)(=O)C1)NCc1cc(NC2=NOC(c3ccc(F)c(Cl)c3)(C(F)(F)F)C2)ccc1Cl (stereo not drawn) [I-49]
≥ 75%: [1] | [2] | [5]

N#CCC(=O)NCc1cc(NC2=NOC(c3ccc(F)c(Cl)c3)(C(F)(F)F)C2)ccc1Cl (stereo not drawn) [I-51]
not listed: [3]
≥ 75%: all other assays above
